Tested on: MDA-MB-231 and U138 MG cells
Assay: Laser scanning confocal fluorescence microscopy of cellular uptake
Format: cell-based, human
Settings: for Cy5.5 fluorescence intensity in MDA-MB-231 cells versus U138MG cells: 0.3 μM Cy5.5 equivalent, 1 h, 37 °C, confocal microscopy; for effect of C225 preincubation on cellular fluorescence: C225 preincubation 12 h, then agent for 1 h, MDA-MB-231 and U138 MG cells
Experimental: To investigate the intracellular distribution of EBP-Gd-DO3A in cells with different levels of EGFR expression, MDA-MB-231 and U138 MG cells were seeded on glass coverslips in 24-well plates (5 × 10^4 cells per well). After 24 h, the cells were washed twice with serum-free medium, treated with 0.3 μM Cy5.5 or Cy5.5-EBP-Gd-DO3A (concentration of equivalent Cy5.5), and incubated at 37 °C for 1 h. Following incubation, cells were washed three times with PBS (pH 7.4) to remove unbound probes and were stained with 4′,6-diamidino-2-phenylindole (DAPI) (Sigma-Aldrich) for 10 min and examined with a laser scanning confocal fluorescence microscope (Leica, TCS SP8) with a 40 × objective lens. The fluorescence signals from Cy5.5 and its conjugates were visualized at λex = 680 nm and λem = 710 nm, while the fluorescence signals of DAPI (nucleus) were performed at λex = 350 nm and λem = 460 nm. The laser power, illumination intensity, and exposure time were kept identical across all samples to ensure quantitative comparability. To further characterize the selective cellular uptake of the conjugate via the EGFR-mediated pathway, the cells were preincubated with C225 for 12 h at 37 °C before probe treatment. Following the removal of the pretreatment solution, the cells were washed with serum-free medium, treated with Cy5.5 or Cy5.5-EBP-Gd-DO3A conjugate, and incubated at 37 °C as described above. The cells were stained with DAPI and visualized using the laser scanning confocal fluorescence microscope, and the fluorescent intensity of the cells was analyzed using Image J.

Substance | Cy5.5 fluorescence intensity in MDA-MB-231 cells versus U138MG cells | effect of C225 preincubation on cellular fluorescence
CMYIEALDKYAC [Cy5.5-EBP-Gd-DO3A, Cy5.5-labelled EBP-Gd-DO3A conjugate for fluorescence microscopy] | much stronger | inhibited
Cy5.5 [reference compound] | the same | did not affect

From paper PMC12810539, “EGFR-targeted gadolinium contrast agents for enhanced molecular magnetic resonance imaging of tumors” (The Journal of Biological Chemistry, 2025)
